By IC50 is commonly meant the point on the concentration scale where inhibition reaches its midpoint. A lower IC50 goes with inhibition by little substance.

In this experiment the test system is Human peripheral blood mononuclear cells (PBMCs) as Responder cells, RPMI 1788 Stimulator cells. Briefly: Mixed Lymphocyte Reaction (MLR) test. The format is cell-based. Conditions: Homo sapiens, RPMI-1788, lowest concentration giving 50% inhibition of the MLR; 6 days coculture, 3H-thymidine incorporation. An outline of the steps:
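Proliferation was read as cpm after a 1 μCi ^3H-thymidine pulse on day 5 and harvest 18 h later, then expressed as % inhibition relative to an MLR without compound. The 6-day triplicate cocultures combined 0.12×10^6 Ficoll-isolated human PBMCs with 0.045×10^6 mitomycin C-inactivated RPMI 1788 cells in RPMI 1640 with 10% FCS.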
Background: Dividing cells build labelled thymidine or BrdU into new DNA.
With `Nc1nc(N2CCN(C(=O)COc3ccccc3)CC2)c2cc(-c3ccccc3)sc2n1` [Example 332, 1-(4-(2-amino-6-phenylthieno[2,3-d]pyrimidin-4-yl)piperazin-1-yl)-2-phenoxyethanone], the IC50 is 0.78 µM.

Compound `Nc1nc(N2CCCN(C(=O)COc3ccc(Cl)cc3)CC2)c2cc(-c3ccccc3)sc2n1` [Example 334, 1-(4-(2-amino-6-phenylthieno[2,3-d]pyrimidin-4-yl)-1,4-diazepan-1-yl)-2-(4-chlorophenoxy)ethanone] yielded an IC50 of 8.83 µM. Against the preceding compound, the IC50 is about 11-fold higher.

The compound `Nc1nc(N2CCCN(C(=O)c3ccc(Cl)cc3)CC2)c2cc(-c3ccccc3)sc2n1` [Example 335, (4-(2-amino-6-phenylthieno[2,3-d]pyrimidin-4-yl)-1,4-diazepan-1-yl)(4-chlorophenyl)methanone] had an IC50 greater than 10 µM.

`Nc1nc(N2CCN(CCOc3ccccc3)CC2)c2cc(-c3ccccc3)sc2n1` [Example 337, 4-(4-(2-phenoxyethyl)piperazin-1-yl)-6-phenylthieno[2,3-d]pyrimidin-2-amine]: the IC50 is 9.64 µM.

Take `Nc1nc(N2CC[C@@H](NC(=O)c3ccc(Cl)cc3)C2)c2cc(-c3ccc(F)cc3)sc2n1` [Example 341, (R)—N-(1-(2-amino-6-(4-fluorophenyl)thieno[2,3-d]pyrimidin-4-yl)pyrrolidin-3-yl)-4-chlorobenzamide]: the IC50 worked out at 7.23 µM.

The compound `Nc1nc(N2CCN(C(=O)CCc3ccccc3)CC2)c2cc(-c3ccc(F)cc3)sc2n1` [Example 343, 1-(4-(2-amino-6-(4-fluorophenyl)thieno[2,3-d]pyrimidin-4-yl)piperazin-1-yl)-3-phenylpropan-1-one] showed an IC50 of 6.99 µM.

`Nc1nc(N2CCN(S(=O)(=O)Cc3ccccc3)CC2)c2cc(-c3ccc(F)cc3)sc2n1` [Example 344, 4-(4-(benzylsulfonyl)piperazin-1-yl)-6-(4-fluorophenyl)thieno[2,3-d]pyrimidin-2-amine] gave an IC50 greater than 10 µM.

`Nc1nc(N2CCN(C(=O)C3CCCCC3)CC2)c2cc(-c3ccc(F)cc3)sc2n1` [Example 345, (4-(2-amino-6-(4-fluorophenyl)thieno[2,3-d]pyrimidin-4-yl)piperazin-1-yl)(cyclohexyl)methanone] registered a 50% inhibitory concentration (IC50) greater than 10 µM.

Take `Nc1nc(N2CCN(C(=O)c3cccnc3)CC2)c2cc(-c3ccc(F)cc3)sc2n1` [Example 346, (4-(2-amino-6-(4-fluorophenyl)thieno[2,3-d]pyrimidin-4-yl)piperazin-1-yl)(pyridin-3-yl)methanone]: the IC50 was greater than 10 µM.

Turning to `CC(C)N(C(=O)N1CCN(c2nc(N)nc3sc(-c4ccc(F)cc4)cc23)CC1)C(C)C` [Example 347, 4-(2-amino-6-(4-fluorophenyl)thieno[2,3-d]pyrimidin-4-yl)-N,N-diisopropylpiperazine-1-carboxamide], the IC50 was 8.2 µM.

As for `Nc1nc(N2CCC(C(=O)c3ccccc3)CC2)c2cc(-c3ccc(F)cc3)sc2n1` [Example 348, (1-(2-amino-6-(4-fluorophenyl)thieno[2,3-d]pyrimidin-4-yl)piperidin-4-yl)(phenyl)methanone], the IC50 came out at 8.27 µM.

Regarding `Nc1nc(N2CCN(C(=O)COc3ccc(Cl)cc3)CC2)c2ccsc2n1` [Example 351, 1-(4-(2-aminothieno[2,3-d]pyrimidin-4-yl)piperazin-1-yl)-2-(4-chlorophenoxy)ethanone], the IC50 stood at 1.23 µM.

As to `O=C(COc1ccc(Cl)cc1)N1CCN(c2nc(-c3ccccc3)nc3sc(-c4ccc(F)cc4)cc23)CC1` [Example 352, 2-(4-chlorophenoxy)-1-(4-(6-(4-fluorophenyl)-2-phenylthieno[2,3-d]pyrimidin-4-yl)piperazin-1-yl)ethanone], the IC50 is greater than 10 µM.

On to `CCOC(=O)c1nc(N2CCN(C(=O)COc3ccc(Cl)cc3)CC2)c2cc(-c3ccc(F)cc3)sc2n1` [Example 353, ethyl 4-(4-(2-(4-chlorophenoxy)acetyl)piperazin-1-yl)-6-(4-fluorophenyl)thieno[2,3-d]pyrimidine-2-carboxylate], for which the IC50 was greater than 10 µM.

As to `NC(=O)c1nc(N2CCN(C(=O)COc3ccc(Cl)cc3)CC2)c2cc(-c3ccc(F)cc3)sc2n1` [Example 355, 4-(4-(2-(4-chlorophenoxy)acetyl)piperazin-1-yl)-6-(4-fluorophenyl)thieno[2,3-d]pyrimidine-2-carboxamide], the IC50 is greater than 10 µM.

Compound `O=C(O)c1nc(N2CCN(C(=O)COc3ccc(Cl)cc3)CC2)c2cc(-c3ccc(F)cc3)sc2n1` [Example 357, 4-(4-(2-(4-chlorophenoxy)acetyl)piperazin-1-yl)-6-(4-fluorophenyl)thieno[2,3-d]pyrimidine-2-carboxylic acid] displayed a half-maximal inhibitory concentration (IC50) greater than 10 µM.

Turning to `Cc1cccc(NC(=O)N2CCN(c3nc(N)nc4sc(-c5ccc(F)cc5)cc34)CC2)c1` [Example 359, 4-(2-amino-6-(4-fluorophenyl)thieno[2,3-d]pyrimidin-4-yl)-N-m-tolylpiperazine-1-carboxamide], half-maximal inhibition (IC50) required 2.8 µM.

As to `COc1ccc(OCC(=O)N2CCN(c3nc(N)nc4sc(-c5ccccc5)cc34)CC2)cc1` [Example 369, 1-(4-(2-amino-6-phenylthieno[2,3-d]pyrimidin-4-yl)piperazin-1-yl)-2-(4-methoxyphenoxy)ethanone], the IC50 was 0.072 µM.

Compound `Nc1nc(N2CCN(C(=O)COc3ccc(F)cc3)CC2)c2cc(-c3ccccc3)sc2n1` [Example 370, 1-(4-(2-amino-6-phenylthieno[2,3-d]pyrimidin-4-yl)piperazin-1-yl)-2-(4-fluorophenoxy)ethanone] came in with an IC50 of 0.066 µM.

`Cc1cccc(OCC(=O)N2CCN(c3nc(N)nc4sc(-c5ccccc5)cc34)CC2)c1` [Example 371, 1-(4-(2-amino-6-phenylthieno[2,3-d]pyrimidin-4-yl)piperazin-1-yl)-2-(m-tolyloxy)ethanone]: the IC50 was 0.21 µM.

For `Nc1nc(N2CCN(C(=O)COc3ccc(Br)cc3)CC2)c2cc(-c3ccccc3)sc2n1` [Example 372, 1-(4-(2-amino-6-phenylthieno[2,3-d]pyrimidin-4-yl)piperazin-1-yl)-2-(4-bromophenoxy)ethanone], the midpoint of inhibition, the IC50, lay at 0.32 µM.

Turning to `CC(C)(Oc1ccc(Cl)cc1)C(=O)N1CCN(c2nc(N)nc3sc(-c4ccccc4)cc23)CC1` [Example 373, 1-(4-(2-amino-6-phenylthieno[2,3-d]pyrimidin-4-yl)piperazin-1-yl)-2-(4-chlorophenoxy)-2-methylpropan-1-one], the IC50 came to 6.92 µM.

With `Nc1nc(N2CCN(C(=O)COc3ccc(Cl)cc3)CC2)c2nc(-c3ccc(F)cc3)[nH]c2n1` [Example 389, 1-(4-(2-amino-8-(4-fluorophenyl)-9H-purin-6-yl)piperazin-1-yl)-2-(4-chlorophenoxy)ethanone], the IC50 stood at 0.81 µM. Compared with the last compound, the IC50 is about 8.5-fold lower.

On to `COc1ccc(-c2nc3c(N4CCN(C(=O)COc5ccc(Cl)cc5)CC4)nc(N)nc3[nH]2)cc1OC` [Example 390, 1-(4-(2-amino-8-(3,4-dimethoxyphenyl)-9H-purin-6-yl)piperazin-1-yl)-2-(4-chlorophenoxy)ethanone], for which 0.53 µM corresponded to half-maximal inhibition (IC50). Compared with the last compound, the IC50 is about 1.5-fold lower.

Take `Nc1nc(N2CCN(C(=O)COc3ccc(Cl)cc3)CC2)c2nc(-c3ccc(Br)cc3)[nH]c2n1` [Example 391, 1-(4-(2-amino-8-(4-bromophenyl)-9H-purin-6-yl)piperazin-1-yl)-2-(4-chlorophenoxy)ethanone]: inhibition was half-maximal at 0.26 µM (IC50).

In turn, `Nc1nc(N2CCN(C(=O)COc3ccc(Cl)cc3)CC2)c2nc(-c3ccc(Cl)cc3)[nH]c2n1` [Example 392, 1-(4-(2-amino-8-(4-chlorophenyl)-9H-purin-6-yl)piperazin-1-yl)-2-(4-chlorophenoxy)ethanone] displayed a half-inhibitory concentration (IC50) of 0.54 µM.

With `Nc1nc(N2CCN(C(=O)COc3ccc(Cl)cc3)CC2)c2nc(-c3cccc(Cl)c3)[nH]c2n1` [Example 393, 1-(4-(2-amino-8-(3-chlorophenyl)-9H-purin-6-yl)piperazin-1-yl)-2-(4-chlorophenoxy)ethanone], inhibition was half-maximal at 0.66 µM (IC50).

The compound `Nc1nc(N2CCN(C(=O)COc3ccc(Cl)cc3)CC2)c2nc(-c3ccc(C(F)(F)F)cc3)[nH]c2n1` [Example 394, 1-(4-(2-amino-8-(4-(trifluoromethyl)phenyl)-9H-purin-6-yl)piperazin-1-yl)-2-(4-chlorophenoxy)ethanone] had an IC50 of 0.63 µM.

The compound `Nc1nc(N2CCN(C(=O)COc3ccc(Cl)cc3)CC2)c2nc(-c3ccc(OC(F)(F)F)cc3)[nH]c2n1` [Example 395, 1-(4-(2-amino-8-(4-(trifluoromethoxy)phenyl)-9H-purin-6-yl)piperazin-1-yl)-2-(4-chlorophenoxy)ethanone] had an IC50 greater than 10 µM.

The compound `Cc1ccc(-c2nc3c(N4CCN(C(=O)COc5ccc(Cl)cc5)CC4)nc(N)nc3[nH]2)cc1` [Example 396, 1-(4-(2-amino-8-p-tolyl-9H-purin-6-yl)piperazin-1-yl)-2-(4-chlorophenoxy)ethanone] gave an IC50 of 0.47 µM.

`CCCc1nc2c(N3CCN(C(=O)COc4ccc(Cl)cc4)CC3)nc(N)nc2[nH]1` [Example 397, 1-(4-(2-amino-8-propyl-9H-purin-6-yl)piperazin-1-yl)-2-(4-chlorophenoxy)ethanone]: the midpoint of inhibition, the IC50, lay at 0.94 µM.

`Nc1nc(N2CCN(C(=O)COc3ccc(Cl)cc3)CC2)c2nc(C3CC3)[nH]c2n1` [Example 398, 1-(4-(2-amino-8-cyclopropyl-9H-purin-6-yl)piperazin-1-yl)-2-(4-chlorophenoxy)ethanone]: the IC50 was 0.43 µM.

The compound `CC(C)(C)c1nc2c(N3CCN(C(=O)COc4ccc(Cl)cc4)CC3)nc(N)nc2[nH]1` [Example 399, 1-(4-(2-amino-8-tert-butyl-9H-purin-6-yl)piperazin-1-yl)-2-(4-chlorophenoxy)ethanone] showed an IC50 of 6.31 µM.

`Cc1nc2c(N3CCN(C(=O)COc4ccc(Cl)cc4)CC3)nc(N)nc2[nH]1` [Example 400, 1-(4-(2-amino-8-methyl-9H-purin-6-yl)piperazin-1-yl)-2-(4-chlorophenoxy)ethanone]: inhibition was half-maximal at 0.45 µM (IC50).

For the origin of these results see patent publication US9221822B2, “Thiazolopyrimidine modulators as immunosuppressive agents” (Katholieke Universiteit Leuven, K.U.Leuven R&D, priority 2009, dated 2015).
